Among the data in patent publication US8633188B2, “Aminodihydrothiazine derivatives” (Shionogi & Co., Ltd., priority 2005, dated 2014) are melting point and IC50 values, retold here.

For data set [1], the target named is recombinant human BACE-1 protein (Homo sapiens (Human), UniProt P56817). As to the kind of experiment: Measurement of inhibition of β-secretase activity (fluorescence-quenched peptide substrate, time-resolved fluorescence). Format: biochemical. The following applies: recombinant human BACE-1 7.4 nM, substrate peptide 18 nM, pH 5.0, 3 h at 30° C.; same test as table 170. How it is done:
Zero point five μL of the test compounds (dissolved in N,N′-dimethylsulfoxide) were incubated with 48.5 μL of the fluorescence-quenched peptide substrate solution (Biotin-XSEVNLDAEFRHDSGC-Eu: X=εe-amino-n-capronic acid,Eu=Europium cryptate) and 1 μL of recombinant human BACE-1 protein (R&D systems) for 3 h at 30° C. in the 96 well half-area plate (black color plate,Costar). The substrate peptide was synthesized by reacting with Biotin-XSEVNLDAEFRHDSGC (Peptide Institute) and Cryptate TBPCOOH mono SMP (CIS bio international). […] The enzymatic reaction was performed in sodium acetate buffer (50 mM sodium acetate (pH 5.0), 0.008% Triton X-100). After the reaction, a 50 μL of 8.0 μg/mL Streptavidin-XL665 (CIS bio international) dissolved in phosphate buffer (150 mM K2HPO4—KH2PO4 (pH 7.0), 0.008% Triton X-100, 0.8 M KF) was add to each well and incubated for 1 h at 30° C.

recombinant human BACE-1 protein, sequence (P56817 46-501): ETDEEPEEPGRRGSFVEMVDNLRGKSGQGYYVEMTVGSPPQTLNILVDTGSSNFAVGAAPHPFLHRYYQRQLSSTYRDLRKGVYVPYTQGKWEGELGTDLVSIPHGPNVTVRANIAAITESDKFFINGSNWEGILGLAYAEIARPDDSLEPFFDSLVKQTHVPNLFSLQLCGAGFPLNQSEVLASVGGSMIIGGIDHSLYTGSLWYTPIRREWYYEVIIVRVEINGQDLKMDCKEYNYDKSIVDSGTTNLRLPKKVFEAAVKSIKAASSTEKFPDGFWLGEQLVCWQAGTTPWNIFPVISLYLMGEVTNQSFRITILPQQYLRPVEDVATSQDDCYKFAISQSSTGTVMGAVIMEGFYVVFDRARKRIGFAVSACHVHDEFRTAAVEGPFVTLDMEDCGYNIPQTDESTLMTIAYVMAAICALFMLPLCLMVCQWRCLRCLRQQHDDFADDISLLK

`CC1(c2ccccc2)CCOC(N)=N1.Cl` (stereo not drawn) came in with a melting point of 194 to 195 °C.

As for `CC1(c2cccc(NC(=O)/C=C/c3cccc(F)c3)c2)CCSC(N)=N1` (stereo not drawn) [Compound 36], the IC50 in data set [1] is below 100 µM.

As for `CC1(c2cc(NC(=O)c3ccc(Br)cc3)cc(S(C)(=O)=O)c2)CCSC(N)=N1` (stereo not drawn) [Compound 71], the IC50 in data set [1] was below 100 µM.

Turning to `CC1(c2cccc(NC(=O)c3ccnnc3)c2)CCSC(N)=N1` (stereo not drawn) [Compound 1274], in data set [1], the IC50 was below 100 µM.

The molecule `CC1(c2cccc(NC(=O)c3ncc(Br)cn3)c2)CCSC(N)=N1` (stereo not drawn) [Compound 900] gave a melting point of 205 to 207 °C. The IC50 in data set [1] is below 100 µM.

`CC1(c2cccc(NC(=O)c3ccc(C4CC4)cn3)c2)CCSC(N)=N1` (stereo not drawn) [Compound 738] registered a melting point of 181 to 183 °C.

Take `CC1(c2cccc(CCC(=O)Nc3ccccc3)c2)CCSC(N)=N1` (stereo not drawn) [Compound 732]: the IC50 in data set [1] was below 100 µM.

Consider `CC1(c2cc(NC(=O)c3ccc(Cl)cc3)cc(S(C)(=O)=O)c2)CCSC(N)=N1` (stereo not drawn) [Compound 30], for which the IC50 in data set [1] was below 100 µM.
